The text below walks through data of BindingDB's records for patent US8476306 (The Medicines, 2013).

pKi: −log10 of the molar value.

The assay has as its target Urokinase-type plasminogen activator (Homo sapiens, UniProt P00749). The assay can be described thus: Enzyme Assay. The settings on record: 24 °C. From the text:
Inhibition constant of the compound against Plasminogen activator urokinase
Regarding `N=C(N)c1ccc(CNC(=O)CNC(=O)[C@@H](CO)NS(=O)(=O)Cc2ccc(CN)cc2)cc1` [US8476306, 6.11], the pKi – broadly, −log10 of the Ki, conventionally taken in molar units – is 6.92.

Consider `N=C(N)c1ccc(CNC(=O)CNC(=O)[C@@H](CO)NS(=O)(=O)Cc2ccncc2)cc1` [US8476306, 6.24], for which the pKi is 7.00.

Take `N=C(N)c1ccc(CNC(=O)[C@H](CCCCN)NC(=O)[C@@H](CO)NS(=O)(=O)Cc2ccccc2)cc1` [US8476306, 8.1]: the pKi was 7.62.

On to `N=C(N)c1ccc(CNC(=O)[C@H](CCCN=C(N)N)NC(=O)[C@@H](CO)NS(=O)(=O)Cc2ccccc2)cc1` [US8476306, 8.2], for which the pKi is 8.05.
